Laboratory results reported in patent publication US9725449B2, “Tricyclic compounds as anticancer agents” (BRISTOL-MYERS SQUIBB COMPANY, priority 2015, dated 2017).

molecular target: BRD4 (Homo sapiens, UniProt O60885); test: Time resolved fluorescence resonance energy transfer (TR-FRET) binding assay, bromodomain BRD4; conditions: one of the FRET assays described; read-out: FRET BRD4 IC50

`[2H]C([2H])([2H])c1nnn(C)c1-c1cnc2c3ccc(N4CCN(C(C)(C)C)CC4)nc3n([C@H](c3ccccc3)C3CCOCC3)c2c1` [Example 152, 11-(4-tert-Butylpiperazin-1-yl)-5-[4-(^2H3)methyl-1-methyl-1H-1,2,3-triazol-5-yl]-8-[(S)-oxan-4-yl(phenyl)methyl]-3,8,10-triazatricyclo[7.4.0.0^2,^7]trideca-1(9),2(7),3,5,10,12-hexaene] and `CNS(=O)(=O)c1ccc2c3ncc(-c4c(C)nnn4C)cc3n([C@H](c3ccccc3)C3CCOCC3)c2n1` [Example 199, 5-(Dimethyl-1H-1,2,3-triazol-5-yl)-N-methyl-8-[(S)-oxan-4-yl(phenyl)methyl]-3,8,10-triazatricyclo[7.4.0.0^2,^7]trideca-1(9),2(7),3,5,10,12-hexaene-11-sulfonamide] cannot be ordered by IC50: less than 10 nM for the first, less than 10 nM for the second.

`Cc1nnn(C)c1-c1cnc2c3ccc(C(C)O)nc3n([C@H](c3ccccc3)C3CCOCC3)c2c1` (stereo partly drawn) [Example 173, 1-[5-(Dimethyl-1H-1,2,3-triazol-5-yl)-8-[(S)-oxan-4-yl(phenyl)methyl]-3,8,10-triazatricyclo[7.4.0.0^2,^7]trideca-1(9),2(7),3,5,10,12-hexaen-11-yl]ethan-1-ol] and `[2H]C([2H])([2H])c1nnn(C)c1-c1cnc2c3c(OCC4CC4(F)F)nccc3n([C@H](c3ccccc3)C3CCOCC3)c2c1` (stereo partly drawn) [Example 279, 13-[(2,2-Difluorocyclopropyl)methoxy]-5-[4-(^2H3)methyl-1-methyl-1H-1,2,3-triazol-5-yl]-8-[(S)-oxan-4-yl(phenyl)methyl]-3,8,12-triazatricyclo[7.4.0.0^2,^7]trideca-1(9),2(7),3,5,10,12-hexaene] cannot be ordered by IC50: less than 10 nM for the first, less than 1 nM for the second.

`[2H]C([2H])([2H])c1nnn(C)c1-c1cnc2c3ccc(C4=CCS(=O)(=O)CC4)nc3n([C@H](c3ccccc3)C3CCOCC3)c2c1` [Example 204, 4-{5-[4-(^2H3)Methyl-1-methyl-1H-1,2,3-triazol-5-yl]-8-[(S)-oxan-4-yl(phenyl)methyl]-3,8,10-triazatricyclo[7.4.0.0^2,^7]trideca-1(9),2(7),3,5,10,12-hexaen-11-yl}-3,6-dihydro-2H-1λ^6-thiopyran-1,1-dione] and `Cc1nnn(C)c1-c1cnc2c3ccc(NC(=O)OC(C)C)nc3n([C@H](c3ccccc3)C3CCOCC3)c2c1` [Example 206, Propan-2-yl N-[5-(dimethyl-1H-1,2,3-triazol-5-yl)-8-[(S)-oxan-4-yl(phenyl)methyl]-3,8,10-triazatricyclo[7.4.0.0^2,^7]trideca-1(9),2(7),3,5,10,12-hexaen-11-yl]carbamate] cannot be ordered by IC50: less than 10 nM for the first, less than 10 nM for the second.

`COc1nccc2c3ncc(-c4c(C)nnn4C)cc3n(C(c3cccc(F)c3)C3CCOCC3)c12` (single isomer, unassigned) [Example 21, 5-(Dimethyl-1H-1,2,3-triazol-5-yl)-8-[(3-fluorophenyl)(oxan-4-yl)methyl]-10-methoxy-3,8,11-triazatricyclo[7.4.0.0^2,^7]trideca-1(13),2(7),3,5,9,11-hexaene] and `[2H]C([2H])([2H])c1nnn(C)c1-c1cnc2c3c(OC)ncc(S(C)(=O)=O)c3n([C@H](c3ccccc3)C3CCOCC3)c2c1` [Example 47, 10-Methanesulfonyl-13-methoxy-5-[4-(^2H3)methyl-1-methyl-1H-1,2,3-triazol-5-yl]-8-[(S)-oxan-4-yl(phenyl)methyl]-3,8,12-triazatricyclo[7.4.0.0^2,^7]trideca-1(13),2(7),3,5,9,11-hexaene] cannot be ordered by IC50: less than 1500 nM for the first, less than 1 nM for the second.

`Cc1nnn(C)c1-c1cnc2c3ccc(N4CCS(=O)(=O)CC4C)nc3n([C@H](c3ccccc3)C3CCOCC3)c2c1` (stereo partly drawn) [Example 210, 4-[5-(Dimethyl-1H-1,2,3-triazol-5-yl)-8-[(S)-oxan-4-yl(phenyl)methyl]-3,8,10-triazatricyclo[7.4.0.0^2,^7]trideca-1(9),2(7),3,5,10,12-hexaen-11-yl]-3-methyl-1λ^6,4-thiomorpholine-1,1-dione] and `CC(=O)c1ccc2c3ncc(-c4c(C)nnn4C)cc3n([C@H](c3ccccc3)C3CCOCC3)c2n1` [Example 171, 1-[5-(Dimethyl-1H-1,2,3-triazol-5-yl)-8-[(S)-oxan-4-yl(phenyl)methyl]-3,8,10-triazatricyclo[7.4.0.0^2,^7]trideca-1(9),2(7),3,5,10,12-hexaen-11-yl]ethan-1-one] cannot be ordered by IC50: less than 10 nM for the first, less than 10 nM for the second.

`[2H]C([2H])([2H])c1nnn(C)c1-c1cnc2c3ccc(-c4c(C([2H])([2H])[2H])nnn4C)nc3n(C(c3ncccc3F)C3CCOCC3)c2c1` (stereo not drawn) [Example 248, 8-[(3-Fluoropyridin-2-yl)(oxan-4-yl)methyl]-5,11-bis[4-(^2H3)methyl-1-methyl-1H-1,2,3-triazol-5-yl]-3,8,10-triazatricyclo[7.4.0.0^2,^7]trideca-1(13),2(7),3,5,9,11-hexaene] and `[2H]C([2H])([2H])c1nnn(C)c1-c1cnc2c3c(N(C)CC)nccc3n([C@H](c3ccccc3)C3CCOCC3)c2c1` [Example 132, N-Ethyl-N-methyl-5-[4-(^2H3)methyl-1-methyl-1H-1,2,3-triazol-5-yl]-8-[(S)-oxan-4-yl(phenyl)methyl]-3,8,12-triazatricyclo[7.4.0.0^2,^7]trideca-1(13),2(7),3,5,9,11-hexaen-13-amine] cannot be ordered by IC50: less than 10 nM for the first, less than 1 nM for the second.

`Cc1nnn(C)c1-c1cnc2c3ccc(C4=CCN(C)CC4)nc3n([C@H](c3ccccc3F)C3CCOCC3)c2c1` [Example 230, 5-(Dimethyl-1H-1,2,3-triazol-5-yl)-8-[(S)-(2-fluorophenyl)(oxan-4-yl)methyl]-11-(1-methyl-1,2,3,6-tetrahydropyridin-4-yl)-3,8,10-triazatricyclo[7.4.0.0^2,^7]trideca-1(13),2(7),3,5,9,11-hexaene] and `[2H]C([2H])([2H])c1nnn(C)c1-c1cnc2c3ccc(N4CCN(C([2H])([2H])[2H])CC4)nc3n([C@H](c3ccccc3)C3CCOCC3)c2c1` [Example 249, 5-[4-(^2H3)Methyl-1-methyl-1H-1,2,3-triazol-5-yl]-11-[4-(^2H3)methylpiperazin-1-yl]-8-[(S)-oxan-4-yl(phenyl)methyl]-3,8,10-triazatricyclo[7.4.0.0^2,^7]trideca-1(13),2(7),3,5,9,11-hexaene] cannot be ordered by IC50: less than 10 nM for the first, less than 10 nM for the second.

`CC(=O)c1cnc2c3ccc(-c4c(C)nnn4C)nc3n([C@H](c3ccccc3)C3CCOCC3)c2c1` [Example 379] and “2-{8-[(3-Fluoropyridin-2-yl)(oxan-4-yl)methyl]-11-[4-(^2H3)methyl-1-methyl-1H-1,2,3-triazol-5-yl]-3,8,10-triazatricyclo[7.4.0.0^2,^7]trideca-1(9),2,4,6,10,12-hexaen-5-yl}propan-2-ol [Example 363]” cannot be ordered by IC50: less than 1 nM for the first, less than 1 nM for the second.

`[2H]C([2H])([2H])c1nnn(C)c1-c1cnc2c3ccc(-c4c(C([2H])([2H])[2H])nnn4C)nc3n(C(c3ccccc3)C3CCC(F)(F)CC3)c2c1` (stereo not drawn) [Example 261, 8-[(4,4-Difluorocyclohexyl)(phenyl)methyl]-5,11-bis[4-(^2H3)methyl-1-methyl-H-1,2,3-triazol-5-yl]-3,8,10-triazatricyclo[7.4.0.0^2,^7]trideca-1(13),2(7),3,5,9,11-hexaene] and `Cc1nnn(C)c1-c1cnc2c3c(Cl)nc(C(C)(C)O)cc3n([C@H](c3ccccc3)C3CCOCC3)c2c1` [Example 294, 2-{13-chloro-5-[4-(^2H3)methyl-1-methyl-1H-1,2,3-triazol-5-yl]-8-[(S)-oxan-4-yl(phenyl)methyl]-3,8,12-triazatricyclo[7.4.0.0^2,^7]trideca-1(13),2(7),3,5,9,11-hexaen-11-yl}propan-2-ol] cannot be ordered by IC50: less than 10 nM for the first, less than 10 nM for the second.

`COc1nccc2c3ncc(-c4c(C)nnn4C)cc3n(C(c3c(F)cccc3F)C3CCOCC3)c12` (racemic) [Example 27, 8-[(2,6-Difluorophenyl)(oxan-4-yl)methyl]-5-(dimethyl-1H-1,2,3-triazol-5-yl)-10-methoxy-3,8,11-triazatricyclo[7.4.0.0^2,^7]trideca-1(13),2(7),3,5,9,11-hexaene] and `CCS(=O)(=O)Nc1ncc(S(C)(=O)=O)c2c1c1ncc(-c3c(C)noc3C)cc1n2[C@H](c1ccccc1)C1CCOCC1` [Example 99, N-[5-(Dimethyl-1,2-oxazol-4-yl)-10-methanesulfonyl-8-[(S)-oxan-4-yl(phenyl)methyl]-3,8,12-triazatricyclo[7.4.0.0^2,^7]trideca-1(13),2(7),3,5,9,11-hexaen-13-yl]ethane-1-sulfonamide] cannot be ordered by IC50: less than 10 nM for the first, less than 1 nM for the second.

`Cc1nnn(C)c1-c1ccc2c3ncc(N4CCS(=O)(=O)CC4)cc3n([C@H](c3ccccc3)C3CCOCC3)c2n1` [Example 381, 4-[11-(Dimethyl-1H-1,2,3-triazol-5-yl)-8-[(S)-oxan-4-yl(phenyl)methyl]-3,8,10-triazatricyclo[7.4.0.0^2,^7]trideca-1(9),2(7),3,5,10,12-hexaen-5-yl]-1λ^6,4-thiomorpholine-1,1-dione] and `COc1nccc2c1c1ncc(-c3c(C)nnn3C)cc1n2[C@H](c1ccccc1F)C1CCOCC1` [Example 30, 5-(Dimethyl-1H-1,2,3-triazol-5-yl)-8-[(S)-(2-fluorophenyl)(oxan-4-yl)methyl]-13-methoxy-3,8,12-triazatricyclo[7.4.0.0^2,^7]trideca-1(9),2(7),3,5,10,12-hexaene] cannot be ordered by IC50: less than 10 nM for the first, less than 1 nM for the second.

`Cc1nnn(C)c1-c1cnc2c3ccc(N4CCC(C(=O)N(C)C)CC4)nc3n([C@H](c3ccccc3F)C3CCOCC3)c2c1` [Example 271, 1-[5-(Dimethyl-1H-1,2,3-triazol-5-yl)-8-[(S)-(2-fluorophenyl)(oxan-4-yl)methyl]-3,8,10-triazatricyclo[7.4.0.0^2,^7]trideca-1(13),2(7),3,5,9,11-hexaen-11-yl]-N,N-dimethylpiperidine-4-carboxamide] and `Cc1nnn(C)c1-c1cnc2c3cc(C(C)(C)O)cnc3n([C@H](c3ccccc3)C3CCOCC3)c2c1` [Example 350, 2-[5-(Dimethyl-1H-1,2,3-triazol-5-yl)-8-[(S)-oxan-4-yl(phenyl)methyl]-3,8,10-triazatricyclo[7.4.0.0^2,^7]trideca-1(13),2(7),3,5,9,11-hexaen-12-yl]propan-2-ol] cannot be ordered by IC50: less than 10 nM for the first, less than 10 nM for the second.
